Assay [1] deals with solid tumor cancers (colorectal, pancreatic, ovarian, and prostate). The settings on record: patients with advanced, rapidly progressive, treatment-refractory solid tumor cancers; cited from earlier work.
In another assay the target is T1, Recombinant human MMP-1 (Homo sapiens, UniProt P03956).
T1 construct: made in house; host or cells: transfected HT-1080 cells
T1 sequence (P03956 100-469): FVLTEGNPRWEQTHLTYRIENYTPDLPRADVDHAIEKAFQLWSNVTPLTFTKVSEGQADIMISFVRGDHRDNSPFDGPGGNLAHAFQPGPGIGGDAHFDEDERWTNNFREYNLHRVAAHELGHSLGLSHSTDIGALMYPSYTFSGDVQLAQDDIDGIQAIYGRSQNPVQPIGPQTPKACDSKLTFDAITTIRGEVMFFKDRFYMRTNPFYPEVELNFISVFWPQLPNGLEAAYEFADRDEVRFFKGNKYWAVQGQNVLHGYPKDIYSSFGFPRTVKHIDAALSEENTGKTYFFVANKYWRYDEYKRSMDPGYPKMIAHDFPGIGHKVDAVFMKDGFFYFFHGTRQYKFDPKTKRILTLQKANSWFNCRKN
Description: biochemical. To be noted: fluorogenic MCA-peptide substrate, pH 7.5, room temperature. In short, it runs like this:
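Recombinant human MMP-1 from transfected HT-1080 cells, APMA-activated and hydroxamate-column purified, was incubated at room temperature with 4 uM MCA-ProLeuGlyLeuDpaAlaArgNH2 fluorogenic substrate. Inhibition taken as fall in fluorescence versus inhibitor concentration, giving IC50.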

Another assay has as its target T2, Recombinant human MMP-2 (Homo sapiens, UniProt P08253).
T2 construct: made in house
T2 sequence (P08253 110-660): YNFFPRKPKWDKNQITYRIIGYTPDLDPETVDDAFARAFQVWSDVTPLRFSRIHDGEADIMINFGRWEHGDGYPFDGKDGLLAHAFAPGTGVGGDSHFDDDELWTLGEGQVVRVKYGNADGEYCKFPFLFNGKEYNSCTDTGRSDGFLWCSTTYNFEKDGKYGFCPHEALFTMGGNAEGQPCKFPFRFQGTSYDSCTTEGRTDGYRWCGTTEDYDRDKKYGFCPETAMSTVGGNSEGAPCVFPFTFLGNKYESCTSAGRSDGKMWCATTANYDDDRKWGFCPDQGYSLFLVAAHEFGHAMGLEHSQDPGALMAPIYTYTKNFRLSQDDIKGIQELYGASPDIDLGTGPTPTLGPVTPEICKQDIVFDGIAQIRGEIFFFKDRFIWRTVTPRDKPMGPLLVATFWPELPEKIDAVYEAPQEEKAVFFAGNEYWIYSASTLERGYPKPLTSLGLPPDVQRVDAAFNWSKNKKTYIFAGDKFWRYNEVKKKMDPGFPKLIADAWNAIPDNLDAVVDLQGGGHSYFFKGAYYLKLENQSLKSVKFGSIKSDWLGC
Description: biochemical. The settings on record: fluorogenic MCA-peptide substrate, pH 7.5, room temperature; read-out: MMP-2 IC50. In short, it runs like this: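 Activated (APMA or trypsin) recombinant human MMP-2, from transfected expressing cells, incubated at room temperature with 4 uM fluorogenic substrate MCA-Pro-Leu-Gly-Leu-Dpa-Ala-Arg-NH2 and hydroxamate inhibitor.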

Another assay addresses T3, Recombinant human MMP-13 (Homo sapiens, UniProt P45452).
T3 construct: made in house; host or cells: baculovirus / insect cells
Description: biochemical. To be noted: fluorogenic MCA-peptide substrate, pH 7.5, room temperature; read-out: MMP-13 IC50. In short, it runs like this:
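APMA-activated MMP (proenzyme purified on heparin agarose and chelating zinc columns) incubated at room temperature with 4 uM fluorogenic MCA-ProLeuGlyLeuDpaAlaArgNH2 substrate. Inhibition read as reduced fluorescence versus inhibitor concentration relative to a DMSO control, giving IC50.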

Each structure is given as a SMILES string.

For the molecule `CNC(=O)[C@@H](NC(=O)[C@H](CC(C)C)[C@H](O)C(=O)NO)C(C)(C)C` [Marimastat], the “effect on cancer-specific antigens used as surrogate markers for biological activity” value in assay [1] is “dose-related reduction in the rise of cancer-specific antigens”.
For orientation: IC50 means the concentration that inhibits the measured activity by half. For the molecule `CCN1CCC(C(=O)NO)(S(=O)(=O)c2ccc(N3CCC(C(=O)c4ccc(CCC(C)C)c(F)c4)CC3)cc2)CC1` [Example 249], the IC50 on Recombinant human MMP-1 is above 10000 nM; on Recombinant human MMP-2 it was above 10000 nM; at Recombinant human MMP-13, 5.8 nM.
Regarding `COc1ccccc1N1CCN(C(=O)C2CCN(c3ccc(S(=O)(=O)C4(C(=O)NO)CCOCC4)cc3)CC2)CC1` [Example 7], the half-maximal inhibitory concentration (IC50) was above 10000 nM on Recombinant human MMP-1, 4500 nM on Recombinant human MMP-2 and 18 nM at Recombinant human MMP-13.
As to `Cc1ccc(N2CCN(C(=O)C3CCN(c4ccc(S(=O)(=O)C5(C(=O)NO)CCOCC5)cc4)CC3)CC2)c(C)c1` [Example 9], the figures for the IC50 at Recombinant human MMP-1, at Recombinant human MMP-2 and on Recombinant human MMP-13 were above 10000 nM, 5600 nM and 12.2 nM, respectively.
Take `O=C(c1ccc(Br)cc1)C1CCN(c2ccc(S(=O)(=O)C3(C(=O)NO)CCN(C4CC4)CC3)cc2)CC1` [Example 190]: the IC50 on Recombinant human MMP-1 was above 10000 nM; on Recombinant human MMP-2, 23.1 nM; at Recombinant human MMP-13, 0.2 nM.
In the case of `Cc1ccc(C(=O)C2CCN(c3ccc(S(=O)(=O)C4(C(=O)NO)CCN(CC5CC5)CC4)cc3)CC2)cc1` [Example 210], the IC50 is above 10000 nM on Recombinant human MMP-1, 13.1 nM at Recombinant human MMP-2 and 1.1 nM on Recombinant human MMP-13.
The like results for `COCCN1CCC(C(=O)NO)(S(=O)(=O)c2ccc(N3CCC(C(=O)c4ccc(COCC(C)C)s4)CC3)cc2)CC1` [Example 243] were, in that order, above 10000 nM, 56 nM and 0.3 nM.
The like results for `CCN1CCC(C(=O)NO)(S(=O)(=O)c2ccc(N3CCC(C(=O)c4ccc(N(C)C)cc4)CC3)cc2)CC1` [Example 168] were, in that order, above 10000 nM, 2180 nM and 2.1 nM.
For the molecule `COCCN1CCC(C(=O)NO)(S(=O)(=O)c2ccc(N3CCC(c4ccc(Cl)cc4)CC3)cc2)CC1` [Example 271], the half-inhibitory concentration (IC50) on Recombinant human MMP-1 is above 10000 nM; at Recombinant human MMP-2, 1.7 nM; at Recombinant human MMP-13, 0.8 nM.
As for `COCCN1CCC(C(=O)NO)(S(=O)(=O)c2ccc(N3CCC(C(=O)c4ccc(OC5CCCC5)cc4)CC3)cc2)CC1` [Example 227], the values for the IC50 at Recombinant human MMP-1, at Recombinant human MMP-2 and on Recombinant human MMP-13 were above 10000 nM, 132 nM and 1.4 nM, respectively.
The like results for `COc1ccc(C2CCN(c3ccc(S(=O)(=O)C4(C(=O)NO)CCN(CC5CC5)CC4)cc3)CC2)cc1` [Example 268] were, in that order, above 10000 nM, 5 nM and 1.2 nM.

These data come from US20040209914A1, “Aromatic sulfone hydroxamic acids and their use as protease inhibitors” (priority 2000, published 2004).
